Source: article PMC5729604, “Dual inhibitors of hepatitis C virus and hepatocellular carcinoma: design, synthesis and docking studies” (Future Science OA, 2017)
Values after ≈ are worked out from the molar mass of the structure shown. Read-outs that look alike come from different tables or passages of the source.

Test system: human HCC cell line HepG2
Assay: cells
Format: cell-based
Details: for IC50: Homo sapiens, HepG2, 72 h, neutral red; for IC50 / (LD0) HepG2 / Safe doses (100% viability of HepG2) LD0: 72 h; for in vitro anticancer activity against HepG2, in words: IC50 <100 μg/ml potential, 100-1000 μg/ml moderate; for (LD0) HepG2 / Safe doses (100% viability of HepG2) LD0: human
Experimental: The safe compounds on RBCs (5a-g, 5i-l, 5p-r, 5v-w, 6b-g) were screened for their potential anticancer activity against human HCC cell line HepG2. HepG2 cells were exposed to the test compounds, then viability of cells was measured using neutral red uptake assay as described by Borenfreund and Puerner. This assay depends on the fact that neutral red dye can be incorporated into the lysosomes of living cells providing a quantitative assay to the cytotoxic effects. The results were interpreted to calculate both the concentration causing 50% cancer cell death (IC50) of each compound and the maximum safe concentration that cause 100% viability (LD0; to be used in the in vitro anti-HCV testing) using GraphPad InStat 3.0 software (Figure 5 & Supplementary Table 2).
HepG2 cells were routinely maintained as adherent cell cultures in RPMI-1640 medium (Lonza Group Ltd, Basel, Switzerland) supplemented with 10% fetal bovine serum (FBS; Lonza, IL, USA) at 37°C in a humidified air incubator containing 5% CO2. Cells were subcultured for 2 weeks before assay. Cell viability was assessed using trypan blue exclusion method.
HepG2 cells were washed twice in RPMI-1640 medium supplemented with 200 μM L-glutamine (Lonza) and […] 4-(2-hydroxyethyl)-1-piperazineethanesulfonic acid (HEPES) buffer (Lonza). The cells were suspended at 3 × 10^4 cells/ml in RPMI culture medium (RPMI supplemented medium and 10% FBS). The appropriate number of cells was chosen to be 3 × 10^3 cells/well (100 μl of the prepared suspension), and the cells were left to adhere on the polystyrene 96-well plates in an incubator at 37°C, 5% CO2 and 95% humidity for 24 h. The cells were washed once using RPMI supplemented medium.
A 2 mg/ml stock solution of each compound was prepared in DMF and filtered using a 0.2 μM syringe filter. The desired concentrations (20, 10, 5, 2.5 and 1.25 μg/ml) were prepared using serial dilution in a 96-well plate. Compound wells were prepared by adding 100 μl of the previously prepared concentrations to a 100 μl of HepG2 cells suspension. Parallel concentrations of the solvent were prepared to be used as controls. 5-Fluorouracil was used as a positive control. Control wells were prepared by adding 100 μl culture media to a 100 μl of HepG2 cells suspension. Blank wells contained 200 μl of culture media only (without cells or compound solution). Each set of samples was pipetted in duplicate. The plate was gently shaken, then incubated at 37°C, 5% CO2 for 72 h.
After incubation, the plate was centrifuged (2000 r.p.m. for 10 min). The media were discarded by inversion over paper towels. A working solution (100 μg/ml) of neutral red stain (Bio Basic Inc, Markham, Canada) was prepared, and 100 μl of this solution was added to each well, then the plate was gently shaken. The plate was incubated at 37°C in humidified 5% CO2 for 3 h, and then centrifuged (2000 r.p.m. for 10 min). Excess dyes were discarded, and the cells were fixed with 100 μl fixing solution (0.5% formalin with 1% calcium chloride [Sigma-Aldrich]) for 1 min. Cells were destained in 100 μl destaining solution (50% ethanol with 1% glacial acetic acid [Sigma-Aldrich]) for 5 min by shaking. The stain intensity was assayed using automated microplate reader spectrophotometer adjusted at 490 nm. Surviving cell fraction was calculated according to the following equation: [drawing 3]
The results were interpreted to calculate both the concentration causing 50% cancer cell death (IC50) of each compound and the maximum safe concentration that cause 100% viability (LD0; to be used in the in vitro anti-HCV testing) using GraphPad InStat 3.0 software.

[1] = Table 1, read-out: IC50 (HepG2)
[2] = Supplementary Table 2, read-out: Anticancer (HepG2) IC50

Structure (SMILES) | IC50 [1] [µg/mL] | IC50 (read-out: IC50 against HepG2 cells) [µg/mL] | IC50 [2] [µg/mL] | in vitro anticancer activity against HepG2, in words | Selectivity index (LD50 on PBMC / IC50 on HepG2) | (LD0) HepG2 [µg/mL] | Safe doses (100% viability of HepG2) LD0 [µg/mL] | Selectivity index (LD50 on normal cells / IC50 on cancer cells, larger than three = highly selective)
COc1ccc(-c2nn(-c3ccccc3)cc2C=C2SC(=NN=C(C)c3cc4ccccc4o3)N(C3CCCCC3)C2=O)cc1 [Compound 5l, 2-[1-(Benzofuran-2-yl)ethylidenehydrazono]-5-{[3-(4-methoxyphenyl)-1-phenyl-1H-pyrazol-4-yl]methylene}-3-cyclohexylthiazolidin-4-one] | 82.1 (≈ 133 µM) |  |  | potential in vitro anticancer activity | 0.57 | 5.11 | 5.11 | 
CC(=NN=C1SC(=Cc2cn(-c3ccccc3)nc2-c2ccccc2)C(=O)N1c1ccc(Cl)cc1)c1nc2ccccc2[nH]1 [Compound 5p, 2-[1-(1H-Benzimidazole-2-yl)ethylidenehydrazono]-5-[(1,3-Diphenyl-1H-pyrazol-4-yl)methylene]-3-(4-chlorophenyl)thiazolidin-4-one] | 46.5 (≈ 75.7 µM) | < 50 |  | potential in vitro anticancer activity | 2.58 | 13.32 | 13.22 | 
CC(=NN=C1SC(=Cc2cn(-c3ccccc3)nc2-c2ccccc2)C(=O)N1C1CCCCC1)c1cc2ccccc2o1 [Compound 5j, 2-[1-(Benzofuran-2-yl)ethylidenehydrazono]-5-[(1,3-Diphenyl-1H-pyrazol-4-yl)methylene]-3-cyclohexylthiazolidin-4-one] | 63.8 (≈ 109 µM) |  |  | potential in vitro anticancer activity | 2.10 | 5.08 | 5.08 | 
COc1ccc(-c2nn(-c3ccccc3)cc2C=C2SC(=NN=C(C)c3cc4ccccc4o3)N(c3ccccc3)C2=O)cc1 [Compound 5c, 2-[1-(Benzofuran-2-yl)ethylidenehydrazono]-5-{[3-(4-methoxyphenyl)-1-phenyl-1H-pyrazol-4-yl]methylene}-3-phenylthiazolidin-4-one] |  |  | 143 (≈ 235 µM) |  |  | 5.88 | 5.88 | 
CC(=NN=C1SC(=Cc2cn(-c3ccccc3)nc2-c2ccc(Cl)cc2)C(=O)N1c1ccccc1)c1cc2ccccc2o1 [Compound 5b, 2-[1-(Benzofuran-2-yl)ethylidenehydrazono]-5-{[3-(4-chlorophenyl)-1-phenyl-1H-pyrazol-4-yl]methylene}-3-phenylthiazolidin-4-one] |  |  | 120 (≈ 195 µM) |  |  | 23.02 | 23.02 | 
CC(=NN=C1SC(=Cc2cn(-c3ccccc3)nc2-c2ccc(Cl)cc2)C(=O)N1C1CCCCC1)c1cc2ccccc2o1 [Compound 5k, 2-[1-(Benzofuran-2-yl)ethylidenehydrazono]-5-{[3-(4-chlorophenyl)-1-phenyl-1H-pyrazol-4-yl]methylene}-3-cyclohexylthiazolidin-4-one] |  |  | 150 (≈ 242 µM) |  |  | 56.74 | 56.74 | 
COc1ccc(-c2nn(-c3ccccc3)cc2C=C2SC(=NN=C(C)c3cc4ccccc4o3)N(c3ccc(Cl)cc3)C2=O)cc1 [Compound 5f, 2-[1-(Benzofuran-2-yl)ethylidenehydrazono]-5-{[3-(4-methoxyphenyl)-1-phenyl-1H-pyrazol-4-yl]methylene}-3-(4-chlorophenyl)thiazolidin-4-one] | 69.4 (≈ 108 µM) |  |  | potential in vitro anticancer activity | 3.74 | 10.39 | 10.39 | larger than three
COc1ccc(-c2nn(-c3ccccc3)cc2C=C2SC(=NN=C(C)c3cc4ccccc4o3)N(c3ccc(OC)cc3)C2=O)cc1 [Compound 5i, 2-[1-(Benzofuran-2-yl)ethylidenehydrazono]-5-{[3-(4-methoxyphenyl)-1-phenyl-1H-pyrazol-4-yl]methylene}-3-(4-methoxyphenyl)thiazolidin-4-one] |  |  | 120 (≈ 188 µM) |  |  | 0.05 | 0.05 | 
CC(=NN=C1SC(=Cc2cn(-c3ccccc3)nc2-c2ccccc2)C(=O)N1C1CCCCC1)c1nc2ccccc2[nH]1 [Compound 5v, 2-[1-(1H-Benzimidazole-2-yl)ethylidenehydrazono]-5-[(1,3-Diphenyl-1H-pyrazol-4-yl)methylene]-3-cyclohexylthiazolidin-4-one] |  |  | 250 (≈ 427 µM) |  |  | 30.89 | 30.89 | 
COc1ccc(N2C(=O)C(=Cc3cn(-c4ccccc4)nc3-c3ccccc3)SC2=NN=C(C)c2cc3ccccc3o2)cc1 [Compound 5g, 2-[1-(Benzofuran-2-yl)ethylidenehydrazono]-5-[(1,3-Diphenyl-1H-pyrazol-4-yl)methylene]-3-(4-methoxyphenyl)thiazolidin-4-one] |  |  | 193 (≈ 316 µM) |  |  | 66.72 | 66.72 | 
CC(=NN=C1SC(=Cc2cn(-c3ccccc3)nc2-c2ccc(Cl)cc2)C(=O)N1C1CCCCC1)c1nc2ccccc2[nH]1 [Compound 5w, 2-[1-(1H-Benzimidazole-2-yl)ethylidenehydrazono]-5-{[3-(4-chlorophenyl)-1-phenyl-1H-pyrazol-4-yl]methylene}-3-cyclohexylthiazolidin-4-one] |  |  | 1100 (≈ 1770 µM) | very weak anticancer activity |  | 92.40 | 92.40 | 

Now from value to molecule, other results behind:

IC50 [1] [µg/mL] | IC50 (read-out: IC50 against HepG2 cells) [µg/mL] | IC50 [2] [µg/mL] | Structure (SMILES) | in vitro anticancer activity against HepG2, in words | Selectivity index (LD50 on PBMC / IC50 on HepG2) | (LD0) HepG2 [µg/mL] | Safe doses (100% viability of HepG2) LD0 [µg/mL] | Selectivity index (LD50 on normal cells / IC50 on cancer cells, larger than three = highly selective)
 |  | 354 (≈ 689 µM) | CC(=NN=C1SC(=C2C(=O)Nc3ccccc32)C(=O)N1c1ccc(Cl)cc1)c1cc2ccccc2o1 [Compound 6b, 2-[1-(Benzofuran-2-yl)ethylidenehydrazono]-5-(2-oxoindolin-3-ylidene)-3-(4-chlorophenyl)thiazolidin-4-one] |  |  | 11.07 | 11.07 | 
 |  | 110 (≈ 231 µM) | CC(=NN=C1SC(=C2C(=O)Nc3ccccc32)C(=O)N1c1ccccc1)c1nc2ccccc2[nH]1 [Compound 6e, 2-[1-(1H-Benzimidazole-2-yl)ethylidenehydrazono]-5-(2-oxoindolin-3-ylidene)-3-phenylthiazolidin-4-one] |  |  | 16.75 | 16.75 | 
 |  | 248 (≈ 487 µM) | COc1ccc(N2C(=O)C(=C3C(=O)Nc4ccccc43)SC2=NN=C(C)c2nc3ccccc3[nH]2)cc1 [Compound 6g, 2-[1-(1H-Benzimidazole-2-yl)ethylidenehydrazono]-5-(2-oxoindolin-3-ylidene)-3-(4-methoxyphenyl)thiazolidin-4-one] |  |  | 18.62 | 18.62 | 
76.8 (≈ 151 µM) |  |  | COc1ccc(N2C(=O)C(=C3C(=O)Nc4ccccc43)SC2=NN=C(C)c2cc3ccccc3o2)cc1 [Compound 6c, 2-[1-(Benzofuran-2-yl)ethylidenehydrazono]-5-(2-oxoindolin-3-ylidene)-3-(4-methoxyphenyl)thiazolidin-4-one] | potential in vitro anticancer activity | 0.37 | 3.40 | 3.40 | 
 |  | 154 (≈ 300 µM) | CC(=NN=C1SC(=C2C(=O)Nc3ccccc32)C(=O)N1c1ccc(Cl)cc1)c1nc2ccccc2[nH]1 [Compound 6f, 2-[1-(1H-Benzimidazole-2-yl)ethylidenehydrazono]-5-(2-oxoindolin-3-ylidene)-3-(4-chlorophenyl)thiazolidin-4-one] |  |  | 35.33 | 35.33 | 
